{"source": "paper PMC5804415", "about": "“Comparison of ^68Ga-DOTA-Siglec-9 and ^18F-Fluorodeoxyribose-Siglec-9: Inflammation Imaging and Radiation Dosimetry” (Contrast Media & Molecular Imaging, 2017)", "key": {"[1]": {"tested_on": "LDLR^−/−ApoB^100/100 atherosclerotic mice", "set-up": "method as in PMID 27731409", "settings": "mouse, in vivo; cited from earlier work"}, "in vivo": {"experiment": "in vivo", "settings": "Sprague-Dawley, rat, iv, total radioactivity, Ex vivo biodistribution, SD", "description": "Twenty-four hours before the PET studies, Sprague-Dawley rats (weight, 350 ± 22 g; n = 16) were subcutaneously injected with turpentine oil (Sigma-Aldrich) to induce focal acute, sterile inflammation [12]. Before the injection, rats were shaved on the both forelegs. Inflamed area on the left foreleg contained both skin and muscle. The intact, contralateral side (right foreleg) was used as a control.\nAfter PET imaging, rats were sacrificed and various tissues were excised and weighed, and their radioactivity levels were measured with a gamma counter (1480 Wizard 3′′, PerkinElmer, Turku, Finland). The ex vivo biodistribution results were expressed as a percentage of the injected radioactivity dose per gram of tissue (% ID/g) and target-to-background ratio."}, "[2]": {"settings": "SD", "protocol": "Absorbed doses of ^68Ga-DOTA-Siglec-9 and ^18F-FDR-Siglec-9 were calculated with the OLINDA/EXM version 1.0 software (organ level internal dose assessment and exponential modeling; Vanderbilt University, Nashville, TN, USA), which applies the MIRD schema (developed by the Medical Internal Radiation Dose committee of the Society of Nuclear Medicine) for radiation dose calculations in internal exposure. The software includes radionuclide information and selection of human body phantoms. The residence times derived from the rat data were integrated as the area under the time-activity curve. The residence times were converted into corresponding human values by multiplication with a factor to scale the organ and body weights: (WBody,rat/WOrgan,rat)×(WOrgan,human/WBody,human), where WBody,rat and WBody,human are the body weights of rat and human (a 70-kg male), respectively; and WOrgan,rat and WOrgan,human are the organ weights of rat and human (organ weights for a 70 kg male), respectively [14]."}, "[3]": {"tested_on": "rats with skin/muscle inflammation (turpentine oil)", "format": "in vivo, rat", "settings": "rat, in vivo, iv", "experimental": "Rats were divided into two groups with Group 1 being intravenously (i.v.) given ^68Ga-DOTA-Siglec-9 (16 ± 2.9 MBq, n = 8) and Group 2 ^18F-FDR-Siglec-9 (18 ± 5.1 MBq, n = 8). A 60 min dynamic PET acquisition was performed on a High Resolution Research Tomograph (HRRT; Siemens Medical Solutions, Knoxville, TN, USA). The PET data were reconstructed into 5 × 60 s and 11 × 300 s frames using an ordered-subsets expectation maximization 3D algorithm (OSEM3D). Quantitative PET image analysis was performed by defining regions of interest (ROIs) within the inflamed area (on the left foreleg), control area (on the right foreleg), kidneys, lungs, heart, liver, and urinary bladder using […] 2.8 software (Turku PET Centre). Results were expressed as standardized uptake values (SUV) and time-activity curves. SUV was calculated as a ratio of tissue radioactivity concentration (Bq/mL) and given radioactivity dose (Bq) divided by animal's body weight."}}, "note": "Positions of bridges follow the written chain, without caps; N, C: chain ends. Residues, ends and D or L forms follow the SMILES beside them. *: point of attachment. DOTA = O=C(O)CN1CCN(CC(=O)O)CCN(CC(=O)*)CCN(CC(=O)O)CC1; AEEA = NCCOCCOCC(=O)O", "data": [{"smiles": "CC(C)C[C@@H]1NC(=O)CNC(=O)[C@H](CCCNC(=N)N)NC(=O)[C@H](Cc2c[nH]c3ccccc23)NC(=O)[C@H](CO)NC(=O)[C@H](CC(C)C)NC(=O)[C@H](CO)NC(=O)[C@H](CC(C)C)NC(=O)[C@H](CCCNC(=N)N)NC(=O)[C@H](C)NC(=O)[C@@H](NC(=O)COCCOCCNC(=O)CN2CCN(CC(=O)O)CCN(CC(=O)O)CCN(CC(=O)O)CC2)CSSC[C@@H](C(=O)N2CCC[C@H]2C(=O)N[C@@H](CO)C(=O)N[C@@H](CCCCN)C(=O)O)NC(=O)[C@H](CC(C)C)NC(=O)[C@H]([C@@H](C)O)NC1=O", "note": "[^68Ga-DOTA-Siglec-9, metal not drawn] ({DOTA-AEEA}-CARLSLSWRGLTLCPSK-OH; disulfide 1-14)", "values": [{"measurement": "aortic uptake, previously reported", "setting": "[1]", "value": "0.83 ± 0.33", "unit": "% ID/g"}, {"measurement": "tissue uptake at 1 h", "setting": "in vivo; Adipose tissue, BAT", "value": "0.024 ± 0.026", "unit": "%ID/g"}, {"measurement": "tissue uptake at 1 h", "setting": "in vivo; Adipose tissue, WAT", "value": "0.027 ± 0.014", "unit": "%ID/g"}, {"measurement": "tissue uptake at 1 h", "setting": "in vivo; Blood", "value": "0.099 ± 0.04", "unit": "%ID/g"}, {"measurement": "tissue uptake at 1 h", "setting": "in vivo; Bone (femoral)", "value": "0.02 ± 0.0089", "unit": "%ID/g"}, {"measurement": "tissue uptake at 1 h", "setting": "in vivo; Bone marrow", "value": "0.039 ± 0.012", "unit": "%ID/g"}, {"measurement": "tissue uptake at 1 h", "setting": "in vivo; Brain", "value": "0.0062 ± 0.0049", "unit": "%ID/g"}, {"measurement": "tissue uptake at 1 h", "setting": "in vivo; Control area", "value": "0.051 ± 0.0063", "unit": "%ID/g"}, {"measurement": "tissue uptake at 1 h", "setting": "in vivo; Heart", "value": "0.03 ± 0.011", "unit": "%ID/g"}, {"measurement": "tissue uptake at 1 h", "setting": "in vivo; Inflamed area", "value": "0.12 ± 0.032", "unit": "%ID/g"}, {"measurement": "tissue uptake at 1 h", "setting": "in vivo; Kidneys", "value": "2.8 ± 1.8", "unit": "%ID/g"}, {"measurement": "tissue uptake at 1 h", "setting": "in vivo; Liver", "value": "0.32 ± 0.16", "unit": "%ID/g"}, {"measurement": "tissue uptake at 1 h", "setting": "in vivo; Lungs", "value": "0.079 ± 0.035", "unit": "%ID/g"}, {"measurement": "tissue uptake at 1 h", "setting": "in vivo; Muscle", "value": "0.019 ± 0.0091", "unit": "%ID/g"}, {"measurement": "tissue uptake at 1 h", "setting": "in vivo; Pancreas", "value": "0.024 ± 0.0024", "unit": "%ID/g"}, {"measurement": "tissue uptake at 1 h", "setting": "in vivo; Plasma", "value": "0.13 ± 0.015", "unit": "%ID/g"}, {"measurement": "tissue uptake at 1 h", "setting": "in vivo; Small intestine", "value": "0.06 ± 0.016", "unit": "%ID/g"}, {"measurement": "tissue uptake at 1 h", "setting": "in vivo; Spleen", "value": "0.19 ± 0.11", "unit": "%ID/g"}, {"measurement": "tissue uptake at 1 h", "setting": "in vivo; male, Testis", "value": "0.035 ± 0.031", "unit": "%ID/g"}, {"measurement": "Human dose equivalent estimate, Adrenals", "setting": "[2]", "value": "0.014 ± 0.0012", "unit": "mSv/MBq"}, {"measurement": "Human dose equivalent estimate, Brain", "setting": "[2]", "value": "0.012 ± 0.00077", "unit": "mSv/MBq"}, {"measurement": "Human dose equivalent estimate, Breasts", "setting": "[2]", "value": "0.011 ± 0.00064", "unit": "mSv/MBq"}, {"measurement": "Human dose equivalent estimate, Gallbladder wall", "setting": "[2]", "value": "0.014 ± 0.00065", "unit": "mSv/MBq"}, {"measurement": "Human dose equivalent estimate, Heart wall", "setting": "[2]", "value": "0.0083 ± 0.0010", "unit": "mSv/MBq"}, {"measurement": "Human dose equivalent estimate, Kidneys", "setting": "[2]", "value": "0.15 ± 0.12", "unit": "mSv/MBq"}, {"measurement": "Human dose equivalent estimate, Liver", "setting": "[2]", "value": "0.012 ± 0.0024", "unit": "mSv/MBq"}, {"measurement": "Human dose equivalent estimate, Lower large intestine wall", "setting": "[2]", "value": "0.015 ± 0.00077", "unit": "mSv/MBq"}, {"measurement": "Human dose equivalent estimate, Lungs", "setting": "[2]", "value": "0.0044 ± 0.00054", "unit": "mSv/MBq"}, {"measurement": "Human dose equivalent estimate, Muscle", "setting": "[2]", "value": "0.0050 ± 0.00018", "unit": "mSv/MBq"}, {"measurement": "Human dose equivalent estimate, Osteogenic cells", "setting": "[2]", "value": "0.017 ± 0.00094", "unit": "mSv/MBq"}, {"measurement": "Human dose equivalent estimate, Ovaries", "setting": "[2]", "value": "0.015 ± 0.00064", "unit": "mSv/MBq"}, {"measurement": "Human dose equivalent estimate, Pancreas", "setting": "[2]", "value": "0.014 ± 0.00085", "unit": "mSv/MBq"}, {"measurement": "Human dose equivalent estimate, Red marrow", "setting": "[2]", "value": "0.010 ± 0.00037", "unit": "mSv/MBq"}, {"measurement": "Human dose equivalent estimate, Skin", "setting": "[2]", "value": "0.010 ± 0.00054", "unit": "mSv/MBq"}, {"measurement": "Human dose equivalent estimate, Small intestine", "setting": "[2]", "value": "0.014 ± 0.00047", "unit": "mSv/MBq"}, {"measurement": "Human dose equivalent estimate, Spleen", "setting": "[2]", "value": "0.014 ± 0.0011", "unit": "mSv/MBq"}, {"measurement": "Human dose equivalent estimate, Stomach wall", "setting": "[2]", "value": "0.013 ± 0.00065", "unit": "mSv/MBq"}, {"measurement": "Human dose equivalent estimate, Testes", "setting": "[2]", "value": "0.013 ± 0.00062", "unit": "mSv/MBq"}, {"measurement": "Human dose equivalent estimate, Thymus", "setting": "[2]", "value": "0.011 ± 0.00068", "unit": "mSv/MBq"}, {"measurement": "Human dose equivalent estimate, Thyroid", "setting": "[2]", "value": "0.011 ± 0.00072", "unit": "mSv/MBq"}, {"measurement": "Human dose equivalent estimate, Total body", "setting": "[2]", "value": "0.013 ± 0.00041", "unit": "mSv/MBq"}, {"measurement": "Human dose equivalent estimate, Upper large intestine wall", "setting": "[2]", "value": "0.014 ± 0.00046", "unit": "mSv/MBq"}, {"measurement": "Human dose equivalent estimate, Urinary bladder wall", "setting": "[2]", "value": "0.20 ± 0.087", "unit": "mSv/MBq"}, {"measurement": "Human dose equivalent estimate, Uterus", "setting": "[2]", "value": "0.018 ± 0.0017", "unit": "mSv/MBq"}, {"measurement": "Human effective dose estimate", "setting": "[2]", "value": "0.024 ± 0.0041", "unit": "mSv/MBq"}, {"measurement": "Normalized number of disintegrations, Heart wall", "setting": "[2]", "value": "0.0029 ± 0.00072", "unit": "h"}, {"measurement": "Normalized number of disintegrations, Kidneys", "setting": "[2]", "value": "0.093 ± 0.081", "unit": "h"}, {"measurement": "Normalized number of disintegrations, Liver", "setting": "[2]", "value": "0.033 ± 0.0097", "unit": "h"}, {"measurement": "Normalized number of disintegrations, Lungs", "setting": "[2]", "value": "0.0026 ± 0.0011", "unit": "h"}, {"measurement": "Normalized number of disintegrations, Muscle", "setting": "[2]", "value": "0.054 ± 0.0088", "unit": "h"}, {"measurement": "Normalized number of disintegrations, Total body", "setting": "[2]", "value": "1.3 ± 0.085", "unit": "h"}, {"measurement": "Normalized number of disintegrations, Urinary bladder wall", "setting": "[2]", "value": "0.17 ± 0.076", "unit": "h"}, {"measurement": "time of peak uptake in the inflamed area after the i.v. bolus injection", "setting": "[3]", "value": "about 10 min"}]}]}
